In ChEMBL document CHEMBL1201862, “PubChem BioAssay data set” (2004):
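Exposure lasted 48 hours, with cells grown in 96-well plates and compounds tested at five concentrations. At the GI50, growth is halved.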 The source made the active and inactive calls. Rule as the data show it: active = GI50 up to about 1.1 µM and inactive = higher.

Legend:
Experiment in all cases: inhibition of tumour cell growth, NCI panel, 48 h
[1] = tested on: ACHN
[2] = tested on: K562
[3] = tested on: MDA-N
[4] = tested on: SF-539
[5] = tested on: U-251
[6] = tested on: HCT-116
[7] = tested on: NCI-H522
[8] = tested on: TK-10
[9] = tested on: NCI-H460
[10] = tested on: UACC-257
[11] = tested on: IGROV-1
[12] = tested on: SW-620
[13] = tested on: UACC-62
[14] = tested on: SF-295
[15] = tested on: HL-60
[16] = tested on: Hs-578T
[17] = tested on: CCRF-CEM

Structure (SMILES)	GI50 [1]	GI50 [2]	GI50 [3]	GI50 [4]	GI50 [5]	GI50 [6]	GI50 [7]	GI50 [8]	GI50 [9]	GI50 [10]	GI50 [11]	GI50 [12]	GI50 [13]	GI50 [14]	GI50 [15]	GI50 [16]	GI50 [17]
Cc1cc(Cc2c(C)c(C)c(Cc3cc(C)cc(C(C)(C)C)c3O)c(C)c2C)c(O)c(C(C)(C)C)c1	> 100 µM (inactive)	> 100 µM (inactive)	> 100 µM (inactive)	> 100 µM (inactive)	> 100 µM (inactive)	> 100 µM (inactive)	> 100 µM (inactive)	> 100 µM (inactive)	> 100 µM (inactive)	> 100 µM (inactive)	> 100 µM (inactive)	> 100 µM (inactive)	> 100 µM (inactive)	> 100 µM (inactive)	14.4 µM (inactive)	> 100 µM (inactive)	–
C=C1C(=O)O[C@H]2C(=O)[C@H](C)CCC[C@@](C)(O)/C=C\C[C@@]3(C)O[C@@H]3C[C@@H]12	8.02 µM (inactive)	–	17.9 µM (inactive)	19.3 µM (inactive)	18.3 µM (inactive)	7.29 µM (inactive)	2.88 µM (inactive)	4.19 µM (inactive)	26.5 µM (inactive)	14.1 µM (inactive)	20.3 µM (inactive)	8 µM (inactive)	18.4 µM (inactive)	5.28 µM (inactive)	–	27 µM (inactive)	2.67 µM (inactive)
ClC1=C(Cc2ccccc2)Cc2ccc3c(c21)CCC3	29.9 µM (inactive)	31.1 µM (inactive)	36.6 µM (inactive)	74.3 µM (inactive)	19.1 µM (inactive)	28.3 µM (inactive)	17.7 µM (inactive)	72.3 µM (inactive)	–	23.1 µM (inactive)	41.9 µM (inactive)	25.7 µM (inactive)	27.6 µM (inactive)	29.4 µM (inactive)	19.7 µM (inactive)	23.2 µM (inactive)	27.9 µM (inactive)
COC(=O)c1cc(OS(=O)(=O)C(F)(F)F)c(=O)n2c1CCCC2	> 100 µM (inactive)	–	> 100 µM (inactive)	> 100 µM (inactive)	> 100 µM (inactive)	> 100 µM (inactive)	> 100 µM (inactive)	> 100 µM (inactive)	–	> 100 µM (inactive)	> 100 µM (inactive)	> 100 µM (inactive)	86.3 µM (inactive)	> 100 µM (inactive)	> 100 µM (inactive)	> 100 µM (inactive)	> 100 µM (inactive)
Cc1sc2nc(-c3cccc([N+](=O)[O-])c3)c(/C=N/N=C(N)N)n2c1C	1.71 µM (inactive)	1.69 µM (inactive)	1.77 µM (inactive)	1.95 µM (inactive)	1.7 µM (inactive)	–	1.77 µM (inactive)	1.51 µM (inactive)	1.81 µM (inactive)	1.67 µM (inactive)	1.32 µM (inactive)	1.75 µM (inactive)	1.75 µM (inactive)	1.54 µM (inactive)	1.81 µM (inactive)	1.66 µM (inactive)	1.74 µM (inactive)
Nc1ncnc2c1ncn2C1OC(CO)CC1O (stereo not given)	> 100 µM (inactive)	7.93 µM (inactive)	38.7 µM (inactive)	34.7 µM (inactive)	41.7 µM (inactive)	20 µM (inactive)	18 µM (inactive)	> 100 µM (inactive)	–	> 100 µM (inactive)	> 100 µM (inactive)	35.1 µM (inactive)	36.6 µM (inactive)	58.7 µM (inactive)	> 10 µM (inactive)	25.5 µM (inactive)	34.3 µM (inactive)
CC[N+](CC)(CC)/C(=N\S(=O)(=O)c1ccc(Cl)cc1)[N-]S(=O)(=O)c1cc(C)c(Cl)cc1S	> 100 µM (inactive)	6.65 µM (inactive)	> 100 µM (inactive)	57.3 µM (inactive)	43.1 µM (inactive)	26.5 µM (inactive)	60.5 µM (inactive)	58.7 µM (inactive)	41 µM (inactive)	> 100 µM (inactive)	> 100 µM (inactive)	70.3 µM (inactive)	–	47 µM (inactive)	53.8 µM (inactive)	> 100 µM (inactive)	59.3 µM (inactive)
Cc1occc1/C(S)=N\c1ccc(Cl)c(COC(C)(C)C)c1	17.3 µM (inactive)	–	16.1 µM (inactive)	16.8 µM (inactive)	15.6 µM (inactive)	17.9 µM (inactive)	14.5 µM (inactive)	19.4 µM (inactive)	17.2 µM (inactive)	15.7 µM (inactive)	15 µM (inactive)	17.5 µM (inactive)	14.6 µM (inactive)	14.8 µM (inactive)	19.4 µM (inactive)	20.2 µM (inactive)	23.9 µM (inactive)
O=C(Nc1ccc2c(c1)oc(=O)c1ccccc12)C(Cl)Cl	> 100 µM (inactive)	51.2 µM (inactive)	> 100 µM (inactive)	69.7 µM (inactive)	60.1 µM (inactive)	69.3 µM (inactive)	> 100 µM (inactive)	–	27.6 µM (inactive)	> 100 µM (inactive)	> 100 µM (inactive)	> 100 µM (inactive)	36.6 µM (inactive)	> 100 µM (inactive)	12.2 µM (inactive)	> 100 µM (inactive)	> 100 µM (inactive)
COc1cc([C@@]23OC[C@@H]4[C@@H](OC[C@@H]42)c2cc4c(cc23)OCO4)cc(OC)c1OC	< 0.0127 µM (active)	< 0.0208 µM (active)	< 0.01 µM (active)	< 0.01 µM (active)	< 0.01 µM (active)	< 0.01 µM (active)	< 0.01 µM (active)	–	< 0.01 µM (active)	< 0.01 µM (active)	< 0.01 µM (active)	< 0.01 µM (active)	< 0.01 µM (active)	< 0.01 µM (active)	< 0.01 µM (active)	< 0.01 µM (active)	< 0.01 µM (active)
C=C1[C@@](C)([C@@H]2CCCS2)[C@H]2C(C)=C[C@]1(C)n1c(=O)n(-c3ccccc3)c(=O)n12	> 100 µM (inactive)	–	> 100 µM (inactive)	> 100 µM (inactive)	> 100 µM (inactive)	> 100 µM (inactive)	> 100 µM (inactive)	> 100 µM (inactive)	> 100 µM (inactive)	> 100 µM (inactive)	56.2 µM (inactive)	> 100 µM (inactive)	> 100 µM (inactive)	> 100 µM (inactive)	> 100 µM (inactive)	> 100 µM (inactive)	> 100 µM (inactive)
Cc1cc(O)c(C(C)C)cc1C(=S)Nc1ccc(Cl)cc1	13 µM (inactive)	4.35 µM (inactive)	11.4 µM (inactive)	14.3 µM (inactive)	14.7 µM (inactive)	13 µM (inactive)	5.61 µM (inactive)	–	11.1 µM (inactive)	10.9 µM (inactive)	3.32 µM (inactive)	14.3 µM (inactive)	10 µM (inactive)	14.2 µM (inactive)	7.05 µM (inactive)	9.1 µM (inactive)	3.66 µM (inactive)
